Experimental data: publication PMC12036814 (Angewandte Chemie (International Ed. in English), 2025)
“Also recorded” adds a separate entry of the source.

What was measured:
NUDT1 = NUDT1 (Homo sapiens, UniProt P36639); assay: NUDT1 in vitro activity assay (malachite green); format: biochemical; design: Full length NUDT1 gene synthesis; N-terminal His tag with thrombin site from pET28a(+) (NdeI/XhoI) (N, cleaved yes); made in house; host or cells: E. coli BL21 (DE3); conditions: tested 1-500 µM; highest tested 500 µM
[1] = system: HEK‐293 and PDL‐hTERT cells; assay: MTT assay, relative metabolic activity after 3 days; format: cell-based, human; conditions: 3 days of treatment
Description: Methods and Experimental Procedures
(Alfa Aesar, Haverhill, USA, Cat# J66943 ) stocks were prepared in sterile -filtered 0.1 N HCl to a
maximum concentration of 50 mM. HCl was used as vehicle control, diluted in culture medium, and
Cell culture experiments were performed in HEK 293, A549 or PDL-hTERT cells1 cultured in DMEM high
glucose medium supplemented with 10% FCS and 2 mM glutamine ( all, Sigma-Aldrich, St. Louis, USA,
Cat# G7513) in 5% CO2 atmosphere at 37 °C in Heracell 150i incubators (Thermo Fisher Scientific,
Waltham, USA). The human periodontal ligament (PDL -hTERT) cell line was provided by Prof. Denitsa
Docheva. During standard cell passaging accutase (Sigma-Aldrich) or 2,5x trypsin/0.5% EDTA in PBS
(Capricorn Scientific, Ebsdorfergrund, Germany) was used for cell detachment. Cell dishes in various
sizes (10 cm, 15 cm) and flasks (T75, T175) were used for cultivation (Sarstedt, Nümbrecht, Germany,
purchased from Thermo Fisher Scientific, Waltham, USA, Cat# 130184, 130188.
HEK or PDL-hTERT cells (1,5 x 10^3 cells/well) were seeded into 96 -well plates and grown for 24 h. […]
removed by suction and the formed formazan crystals dissolved in 200 μL DMSO. The read-out was
performed with an Infinite M200 Pro microplate reader (Tecan, Männedorf, Switzerland) at 570 nm
and background was subtracted at 630 nm. The absorbance values were normalized to DMSO/0.1 N […]

ADAL1 = target: T1, ADAL1 (Homo sapiens, UniProt Q6DHV7); assay: ADAL1 in vitro activity assay (N6-methyl-AMP absorbance shift); format: biochemical; conditions: tested up to 500 µM
T1 construct: Full length ADAL1 gene synthesis; made in house; host or cells: E. coli BL21 (DE3)
T1 sequence (Q6DHV7 1-355): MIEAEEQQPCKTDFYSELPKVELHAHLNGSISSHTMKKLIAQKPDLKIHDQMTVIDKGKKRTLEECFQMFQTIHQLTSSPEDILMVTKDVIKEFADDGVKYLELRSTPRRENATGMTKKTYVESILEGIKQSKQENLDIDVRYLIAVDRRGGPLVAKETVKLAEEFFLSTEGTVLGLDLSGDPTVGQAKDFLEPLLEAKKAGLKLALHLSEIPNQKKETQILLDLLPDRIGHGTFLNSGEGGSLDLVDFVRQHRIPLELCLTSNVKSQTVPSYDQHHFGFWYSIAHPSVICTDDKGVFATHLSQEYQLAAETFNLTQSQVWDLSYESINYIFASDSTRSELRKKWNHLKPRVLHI
Description: Cytiva, Marlborough, USA, Cat# 6818-1304). Nickel-affinity chromatography purification was
performed with Äkta Pure system (GE Healthcare, Chicago, USA) using an HisTrap HP (5 mL, Cytiva,
Marlborough, USA, Cat# 17-5248) column equilibrated in buffer A. The filtered lysate was applied via
the sample pump and subsequently the column was washed for 15 column volumes (CV) with buffer
A, before gradient elution with buffer B (50 mM Tris pH 8.0, 300 mM NaCl, 5 mM β-mercaptoethanol,
0.1% (v/v) NP40, 10% (v/v) glycerol and 400 mM imidazole) from 0% to 100% buffer B over for 25 CV.
ADAL1 containing fraction s were identified via SDS-PAGE, pooled and dialyzed in buffer 1 (20 mM Tris
pH 8.0, 1 mM DTT, 10% (v/v) glycerol ) in a dialysis membrane ( Carl Roth, Karlsruhe, Germany, Cat#
E659.1) overnight at 4 °C. […]
methyl-AMP (Cayman Chemical, Ann Arbor, USA, Cat# 23382) to […] by ADAL1 was monitored by
the shift of the absorbance maxima of educt ( 265 nm) and product (250 nm). […]
substrate N6-methyl-AMP (1 µL of 20 mM stock in PBS). The absorbance at 270 nm was continuously
measured using a Infinite M200 Pro (Tecan, Männedorf, Switzerland) plate reader. […]
the absorbance readings were calculated via linear regression using GraphPad Prism (version 9). […]
residual activity of compound treated protein was determined in comparison to vehicle -treated […]

[2] = system: periodontal ligament cell line (PDL‐hTERT); assay: Whole proteome analysis and pathway analysis of treated PDL-hTERT cells; format: cell-based, human; design: dose or concentration left out as unconfirmed; conditions: same concentrations ([…] and […] µM), 3 days, compared with Ciprofloxacin
IDH2 = target: T2, IDH2 (Homo sapiens, UniProt P48735); assay: IDH2 in vitro activity assay (NADPH-coupled diaphorase/resazurin); format: biochemical; conditions: known inhibitor control
T2 construct: purchased active motif 31615
T2 sequence (P48735 40-452): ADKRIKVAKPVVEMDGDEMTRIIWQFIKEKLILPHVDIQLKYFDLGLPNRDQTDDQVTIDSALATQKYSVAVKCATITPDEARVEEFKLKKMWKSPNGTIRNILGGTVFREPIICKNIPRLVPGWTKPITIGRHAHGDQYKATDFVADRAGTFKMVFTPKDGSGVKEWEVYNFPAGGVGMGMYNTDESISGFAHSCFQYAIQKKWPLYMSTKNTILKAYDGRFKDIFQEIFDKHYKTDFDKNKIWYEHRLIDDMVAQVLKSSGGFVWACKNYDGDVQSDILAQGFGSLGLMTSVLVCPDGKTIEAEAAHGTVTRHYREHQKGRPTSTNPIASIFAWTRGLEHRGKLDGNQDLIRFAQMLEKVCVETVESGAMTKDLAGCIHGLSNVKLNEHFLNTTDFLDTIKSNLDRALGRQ
Description: Recombinant human isocitrate dehydrogenase was purchased from active motif (Carlsbad, USA, Cat#
Activity assays were performed as previously described with minor
modifications.12 Briefly, the catalytic activity of converting is ocitrate to 2-oxogluterate (α-
ketoglutarate) converting the cofactor NADP+ to NADPH was measured by a NADPH-coupled assay.
The NADPH-dependent diaphorase (Sigma-Aldrich, St. Louis, USA, Cat# SLBT8928) converted resazurin
for activity read-out. To IDH2 (2 nM) in assay buffer (150 mM NaCl, 50 mM K2HPO4, 10 mM MnCl2, 10
mercaptoethanol (cend= 2.5 mM) for a total reaction volume of 79 µL per well (black 96-well plate, 4
replicates per condition). Conditions lacking IDH2 were added as control. After addition of 1 µL of
vehicle controls, the mixture was incubated at 25 °C for 1 h in the dark. Subsequently, the reaction was
initiated by addition of 20 µL of substrate mix (0.2 mM isocitrate, 60 µg/mL diaphorase, 200 µM
resazurin in assay buffer). Fluorescence was continuously measured using an Infinite M200 pro (Tecan,
the fluorescence increases were calculated via linear regression using GraphPad Prism (version 9).

extent of IDH2 (wild-type) inhibition compared with the FQs (IDH2)	SMILES	NUDT1 in vitro activity, inhibition (NUDT1)	approximate apparent IC50 (metabolic activity, MTT) [1]	ADAL1 in vitro activity, effect (ADAL1)	regulation of ETC complex I and IV subunits [2]
–	C[C@H]1COc2c(N3CCN(C)CC3)c(F)cc3c(=O)c(C(=O)O)cn1c23 [Levofloxacin]	only at the highest tested concentration (500 µM); also recorded: only significant at the highest concentration tested	well above the reported plasma concentrations	no significant effect; also recorded: no inhibitory effect was detected	also observed using the same concentrations, although to a lesser extent
similar	CC(C)(O)CNc1nc(Nc2ccnc(C(F)(F)F)c2)nc(-c2cccc(C(F)(F)F)n2)n1 [Enadisenib, Enasidenib]	–	–	–	–
